This experiment concerns CEM cells HIV-1 protection, formazan growth assay. The experiment can be described thus: NCI AIDS Antiviral Assay. To be noted: for IC50: measured here: growth of uninfected CEM cells. The gist of the method: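 Category rules: moderately active means at least 50% protection on retest, and confirmed active means 100% protection reproducibly. The underlying data came from a formazan growth assay in HIV-1-infected CEM cells.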

Calls of active or inactive are those of the source.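 Rule for the calls: active = compounds giving half or more protection of infected cells from virus-caused growth loss, again on retest; inactive = the rest.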

One may read the EC50 as the concentration needed to bring the measured effect to its halfway point. By IC50 is commonly meant the concentration at which inhibition is half-maximal. Higher therefore signals weaker potency in that assay.

As for `N#C/C(=C/NC(=S)c1ccncc1)C(N)=O`, the EC50 is over 200 µM and the IC50 was over 200 µM.

On to `Cc1ccsc1C(=O)C(CC(=O)c1cccs1)c1ccsc1` (stereo not drawn), for which the result was inactive. For `Oc1ccc2c(c1)OCC1c3cc4c(cc3OC21)OCO4` (stereo not drawn), the result was inactive. With `CCOC(=O)C1(C(=O)OCC)COC(C)(C)OC1`, the EC50 was over 200 µM and the IC50 is over 200 µM. As to `O=C(/C=C/c1cccc2ccccc12)c1ccccc1[N+](=O)[O-]`, the EC50 was over 200 µM and the IC50 came to 3.24 µM. With `CSCCC(NC(=O)c1ccccc1C(=O)O)C(=O)O` (stereo not drawn), the EC50 was over 200 µM and the IC50 is over 200 µM.

With `O=c1cc(CBr)c2ccc(O)cc2o1`, the EC50 is over 200 µM and the IC50 is 102 µM.

On to `CCOC(=O)C(=O)CC1=NC2CCCCC2N(C)C1=O` (stereo not drawn), for which the EC50 is over 200 µM and the IC50 is over 200 µM. For `Cc1cn([C@H]2C(CO)[C@@H](CO)C2(C)C)c(=O)[nH]c1=O` (stereo partly drawn), the EC50 is over 933 µM and the IC50 is over 933 µM. Take `COc1ccc2c(=O)c(C)c(-c3ccccc3)oc2c1CN(C)C`: the result was inactive. Consider `S=c1n(-c2ccc(Cl)cc2)c2nc3ccccc3nc(/c2=N\Nc2ccccc2)n1-c1ccc(Br)cc1`, for which the EC50 is over 61.7 µM and the IC50 amounted to 31.6 µM. The like results for `O=c1c(N(CCO)CCO)cn(C(c2ccccc2)(c2ccccc2)c2ccccc2)c(=O)n1C(c1ccccc1)(c1ccccc1)c1ccccc1` were, in that order, over 200 µM and 3.02 µM. For `OC1Cn2cc(Br)c[n+]2C1` (stereo not drawn) the same measures were over 200 µM and over 200 µM.

With `N#Cc1[nH]c(=S)[nH]c1N`, the EC50 is over 200 µM and the half-inhibitory concentration (IC50) amounted to 117 µM. The like results for `Nc1cnn2nnnc2c1Cl` were, in that order, over 200 µM and over 200 µM.

For the molecule `CC1(C)C(O)C[C@]23CCC[C@](C)(C[C@@H](O)C12)C3` (stereo partly drawn), the EC50 is over 200 µM and the IC50 is over 200 µM. Turning to `COc1ccc(C2OC(=O)c3ccccc32)c2ccccc12` (stereo not drawn), the EC50 was over 46.8 µM and the IC50 was over 46.8 µM. In the case of `CCOC(=O)/C(=C\c1c[nH]c2ccccc12)P(=O)(OCC)OCC`, the EC50 was over 200 µM and the IC50 is 38 µM. The like results for `COc1c2c(nc3ccccc13)-c1cc3c(c(=O)n1C2)COC(=O)C3(O)CC(=O)N1CCOCC1` (stereo not drawn) were, in that order, over 10 µM and 0.741 µM.

With `Nc1ncnc2c1ncn2C1OC(CO)C(O)C(O)C1O` (stereo not drawn), the EC50 is over 200 µM and the IC50 was over 200 µM. As to `O=C(O)C12C3C4C1C1C2C3C41C(=O)O` (stereo not drawn), the EC50 is over 200 µM and the IC50 is over 200 µM. As for `COC(=O)/C(=N\Nc1nnc(C)n1N)C(C#N)c1ccc(Cl)cc1` (stereo not drawn), the EC50 was over 724 µM and the IC50 is 372 µM. The like results for `C[C@H]1CCC/C=C/[C@@H]2C[C@H](O)C[C@H]2[C@H](O)/C=C/C(=O)O1` were, in that order, over 891 µM and 0.282 µM. On to `COc1ccc(C(CC(=O)O)c2ccccc2)cc1` (stereo not drawn), for which the EC50 is over 708 µM and the IC50 was found to be 501 µM. As for `O=c1oc2ccccc2c(O)c1/C=N/C(=S)NCCc1ccccc1`, the EC50 was over 200 µM and the IC50 was over 200 µM. `CC1(O)Cn2c(nc3nccnc32)S1` (stereo not drawn): the EC50 was over 603 µM and the IC50 was found to be 31.6 µM. The like results for `C1=C(N2CCOCC2)/C(=C2\SC(=Nc3ccccc3)C(=Nc3ccccc3)N2c2ccccc2)CC1` were, in that order, over 200 µM and 138 µM.

For the molecule `Cc1ccc(S(=O)c2ccccc2[N+](=O)[O-])cc1` (stereo not drawn), the EC50 was over 35.5 µM and the IC50 turned out to be 28.2 µM. As to `OCC(S)CS` (stereo not drawn), the EC50 is over 151 µM and the IC50 stood at 72.4 µM.

With `NC(N)=NCCCC(NC(=O)OCCCCCCn1ccc(N)nc1=O)C(=O)O` (stereo not drawn), the EC50 is over 200 µM and the IC50 was over 200 µM. Consider `C=C1C(=O)OC2/C=C(\CO)C(OC(C)=O)CC(O)/C(C)=C/C(OC(=O)C(C)CC)C12` (stereo not drawn), for which the outcome was inactive.

`CC(C)CCCC(C)N` (stereo not drawn): the EC50 is over 200 µM and the IC50 is over 200 µM. As to `CC1=C([N+](=O)[O-])[C@@H](N2CCOCC2)[C@](C)(N2CCOCC2)S1`, the outcome was inactive. As for `COC(=O)c1cnn2c1n[n+]([O-])c1ccccc12`, the EC50 was over 200 µM and the IC50 is over 200 µM.

As for `CCCCCCCCCCCCCC(=O)OCC1OC(OC)C(NC(=O)N(CCCl)N=O)C(O)C1O` (stereo not drawn), the EC50 is over 18.6 µM and the IC50 is 12 µM. For `N#C/C(=C1\SC(=O)CN1c1ccccc1)c1nc2ccccc2o1` the same measures were over 200 µM and over 200 µM. For `COc1cccc(N/C(C)=C2/CCOC2=O)c1` the same measures were over 200 µM and 105 µM.

Turning to `COP(=O)(/C=C/c1cc(C(=O)OCc2ccccc2)n(S(=O)(=O)c2ccccc2)c1)OC`, the EC50 is 145 µM and the IC50 was over 200 µM. The like results for `N#CC(/C(CCCC(=O)Nc1cccc([N+](=O)[O-])c1)=N/NC(=O)c1cc2ccccc2cc1O)c1ccccc1` (stereo not drawn) were, in that order, over 35.5 µM and 15.5 µM. For `Nc1nnc[se]1` the same measures were over 200 µM and 3.63 µM.

With `c1ccc2c(c1)SCCCS2`, the EC50 is over 39.8 µM and the IC50 was over 39.8 µM. Regarding `CC1(C)OC2C(CF)OC(n3cc(Br)c(=O)[nH]c3=O)C2O1` (stereo not drawn), the EC50 was over 200 µM and the IC50 is over 200 µM. As for `O=S(=O)(O)c1ccc2c(c1)NN(c1ccc(/C=C/c3ccc(N=Nc4ccc(/C=C/c5ccc(N6Nc7ccc(S(=O)(=O)O)cc7N6)cc5S(=O)(=O)O)c(S(=O)(=O)O)c4)cc3S(=O)(=O)O)c(S(=O)(=O)O)c1)N2`, the EC50 was 12.3 µM and the IC50 was 123 µM. For `O=C(NCCc1ccccc1)[C@H]1CCCC[C@@H]1CCO` the same measures were over 200 µM and over 200 µM. Regarding `O=C(CCC(=O)CC(O)(C(F)(F)F)C(F)(F)F)CC(O)(C(F)(F)F)C(F)(F)F`, the EC50 was over 200 µM and the IC50 amounted to 47.9 µM. For `O=C1C(=O)N(c2nccs2)C(=O)C(=O)C1c1nc2ccccc2s1` the same measures were over 100 µM and over 100 µM.

On to `O=[N+]([O-])c1ccc(N=Nc2ccc(N=C=S)cc2)cc1`, for which the EC50 is over 200 µM and the IC50 was determined as 110 µM.

As to `CCc1nnc2n1N=C(c1ccc(-c3ccccc3)cc1)CS2`, the EC50 was over 200 µM and the IC50 turned out to be 11.5 µM.

In the case of `C[C@H]1S[C@@H](c2ccc(Cl)cc2Cl)N(NC(=O)c2ccncc2)C1=O`, the EC50 is over 200 µM and the IC50 worked out at 74.1 µM.

In the case of `CCOc1ccc2nc3nc(=O)[nH]c(C)c3c(NCCCN(CC)CC)c2c1`, the EC50 is over 200 µM and the IC50 was over 200 µM. For the molecule `O=C(/C=C/c1ccc(O)c(O)c1)O[C@H](C(=O)O)[C@H](OC(=O)/C=C/c1ccc(O)c(O)c1)C(=O)O`, the EC50 was over 85.1 µM and the IC50 was 20 µM.

In the case of `c1ccc(-c2nc3nc4ccccc4nc3nc2-c2cccnc2)nc1`, the EC50 was over 8.13 µM and the IC50 was over 8.13 µM. Take `CCOC(=O)C(=O)Nc1ccc(C)c(C)c1`: the EC50 is over 427 µM and the concentration for half-maximal inhibition (IC50) is over 427 µM.

For the molecule `CC(CO)(CO)N1C(=O)C2C3C=CC(C3)C2C1=O` (stereo not drawn), the EC50 is over 200 µM and the IC50 was over 200 µM.

(Values after PubChem BioAssay AID179 (DTP/NCI, 2004).)
